Patent US9388162B2, “Substituted morphinans and the use thereof” (Purdue Pharma L.P., priority 2012, dated 2016)

Tests used:
μ-opioid receptors = μ-opioid receptors (Homo sapiens (Human), UniProt P35372); experiment: μ-opioid receptor [35S]GTPγS functional assay, HEK-293 cells; assay type: biochemical; details: μ GTP; for EC50: read-out: Activity Response μ EC50 (nM) [mean ± SEM]; for Emax: relative to DAMGO, read-out: Activity Response μ Emax (%)
Procedure: [^35S]GTPγS functional assays were conducted using freshly thawed μ-receptor membranes prepared from a cell line expressing recombinant μ opioid receptor in a HEK-293, CHO or U-2 OS cell background or purchased from a commercial source (Perkin Elmer, Shelton, Conn.; or DiscovRx, Fremont, Calif.). Assay reactions were prepared by sequentially adding the following reagents to binding buffer (100 mM NaCl, 10 mM MgCl2, 20 mM HEPES, pH 7.4) on ice (final concentrations indicated): membrane protein (0.026 mg/mL), saponin ([…]), GDP ([…]) and [^35S]GTPγS (0.20 nM; Perkin Elmer, Shelton, Conn.). The prepared membrane solution (190 μl/well) was transferred to 96-shallow well polypropylene plates containing 10 μl of 20× concentrated stock solutions of the agonist [D-Ala^2, N-methyl-Phe^4 Gly-ol^5]-enkephalin (DAMGO) prepared in dimethyl sulfoxide (DMSO). Plates were incubated for 30 min at about 25° C. with shaking. Reactions were terminated by rapid filtration onto 96-well Unifilter GF/B filter plates (Perkin Elmer, Shelton, Conn.) using a 96-well tissue harvester (Perkin Elmer, Shelton, Conn.) followed by three filtration washes with 200 μl of ice-cold wash buffer (10 mM NaH2PO4, 10 mM Na2HPO4, pH 7.4). Filter plates were subsequently dried at 50° C. for 2-3 hours. BetaScint scintillation cocktail (Perkin Elmer, Shelton, Conn.) was added (50 μl/well) and plates were counted using a Packard Top-Count for 1 min/well. Data were analyzed using the sigmoidal dose-response curve fitting functions in GraphPad PRISM v. 3.0, or an in-house function for non-linear, sigmoidal dose-response curve-fitting.
μ GTP EC50 is the concentration of a compound providing 50% of the maximal response for the compound at a μ-opioid receptor.
μ GTP Emax (%) is the maximal effect elicited by a compound relative to the effect elicited by DAMGO, a standard μ agonist. Generally, the μ GTP Emax (%) value measures the efficacy of a compound to treat or prevent pain or other Conditions.
(§1) The following tables provide results on the efficacy of binding and activity response of exemplified Compounds of the Invention at the μ- and κ-opioid receptors. In TABLE 3, binding affinity of certain Compounds of the Invention to the μ- and κ-opioid receptors was determined as described above. In TABLE 4, activity response of certain Compounds of the Invention to the μ- and κ-opioid receptors was determined as described above for functional assays using HEK-293 cells. In TABLE 5, activity response of certain Compounds of the Invention to the μ- and κ-opioid receptors was determined as described above using U-2 OS cells.

κ opioid receptor = κ opioid receptor (Homo sapiens (Human), UniProt P41145); experiment: κ-opioid receptor [35S]GTPγS functional assay, HEK-293 cells; assay type: biochemical; details: κ GTP; for EC50: read-out: Activity Response κ EC50 (nM) [mean ± SEM]; for Emax: relative to U69,593, read-out: Activity Response κ Emax (%)
Procedure: (§2) Membranes from HEK-293 cells, CHO or U-2 OS cells expressing the recombinant human kappa opioid receptor (κ) were prepared by lysing cells in ice cold hypotonic buffer (2.5 mM MgCl2, 50 mM HEPES, pH 7.4) (10 mL/10 cm dish) followed by homogenization with a tissue grinder/Teflon pestle. Membranes were collected by centrifugation at 30,000×g for 15 min at 4° C. and pellets were resuspended in hypotonic buffer to a final concentration of 1-3 mg/mL. Protein concentrations were determined using the BioRad protein assay reagent with bovine serum albumen as standard. Aliquots of κ receptor membranes were stored at −80° C.
Functional [^35S]GTPγS binding assays were conducted as follows. κ opioid receptor membrane solution was prepared by sequentially adding final concentrations of 0.026 μg/μl κ membrane protein (in-house), 10 μg/mL saponin, 3 μM GDP and 0.20 nM [^35S]GTPγS to binding buffer (100 mM NaCl, 10 mM MgCl2, 20 mM HEPES, pH 7.4) on ice. The prepared membrane solution (190 μl/well) was transferred to 96-shallow well polypropylene plates containing 10 μl of 20× concentrated stock solutions of agonist prepared in DMSO. Plates were incubated for 30 min at a temperature of about 25° C. with shaking. Reactions were terminated by rapid filtration onto 96-well Unifilter GF/B filter plates (Perkin Elmer, Shelton, Conn.) using a 96-well tissue harvester (Packard) and followed by three filtration washes with 200 μl ice-cold binding buffer (10 mM NaH2PO4, 10 mM Na2HPO4, pH 7.4). Filter plates were subsequently dried at 50° C. for 2-3 hours. Fifty μl/well scintillation cocktail (Perkin Elmer, Shelton, Conn.) was added and plates were counted in a Packard Top-Count for 1 min/well.
κ GTP EC50 is the concentration of a compound providing 50% of the maximal response for the compound at a κ receptor.
κ GTP Emax (%) is the maximal effect elicited by a compound relative to the effect elicited by U69,593.
as §1, with “In” for “The following tables provide results on the efficacy of binding and activity response of exemplified Compounds of the Invention at the μ- and κ-opioid receptors. In”

[1] = target: recombinant human kappa opioid receptor (κ) (Homo sapiens (Human), UniProt P41145); experiment: κ-opioid receptor radioligand dose displacement binding assay ([3H]-U69,593); details: mean ± SEM, read-out: Binding Affinity Opioid Receptor Ki (nM) [mean ± SEM] κ
Procedure: as §2
Radioligand dose displacement assays used 0.4 nM [^3H]-U69,593 (GE Healthcare, Piscataway, N.J.; 40 Ci/mmole) with 15 μg membrane protein (recombinant κ opioid receptor expressed in HEK 293 cells; in-house prep) in a final volume of 200 μl binding buffer (5% DMSO, 50 mM Trizma base, pH 7.4). Non-specific binding was determined in the presence of 10 μM unlabeled naloxone or U69,593. All reactions were performed in 96-well polypropylene plates for 1 hour at a temperature of about 25° C. Binding reactions were terminated by rapid filtration onto 96-well Unifilter GF/C filter plates (Perkin Elmer, Shelton, Conn.) presoaked in 0.5% polyethylenimine (Sigma). Harvesting was performed using a 96-well tissue harvester (Perkin Elmer, Shelton, Conn.) followed by five filtration washes with 200 μl ice-cold binding buffer. Filter plates were subsequently dried at 50° C. for 1-2 hours. Fifty μl/well scintillation cocktail (Perkin Elmer, Shelton, Conn.) was added and plates were counted in a Packard Top-Count for 1 min/well.
as §1

Row | Structure (SMILES) | EC50 (μ-opioid receptors) | Emax (μ-opioid receptors) | EC50 (κ opioid receptor) | Emax (κ opioid receptor) | Ki [1]
1 | CCOC(=O)C[C@H]1C[C@@]2(O)[C@H]3Cc4ccc(OC)cc4[C@@]2(CCN3CC2CC2)CC1=O [Compound 1, ethyl 2-((4bR,7R,8aS,9R)-11-(cyclopropylmethyl)-8a-hydroxy-3-methoxy-6-oxo-6,7,8,8a,9,10-hexahydro-5H-9,4b-(epiminoethano)phenanthren-7-yl)acetate] | 3400 ± 584 nM | 59.3 ± 3.38% | 5110 ± 1260 nM | 72 ± 3.21% | 408 ± 34.1 nM
2 | COc1ccc2c(c1)[C@]13CCN(CC4CC4)[C@H](C2)[C@]1(O)C[C@H](CC(=O)O)C(=O)C3 [Compound 8, 2-((4bR,7R,8aS,9R)-11-(cyclopropylmethyl)-8a-hydroxy-3-methoxy-6-oxo-6,7,8,8a,9,10-hexahydro-5H-9,4b-(epiminoethano)phenanthren-7-yl)acetic acid] | 703 ± 72 nM | 59.7 ± 8.69% | 4440 ± 679 nM | 66.7 ± 6.84% | 261 ± 97.3 nM
3 | COc1ccc2c(c1)[C@]13CCN(CC4CC4)[C@H](C2)[C@]1(O)CC(CC(=O)O)(CC(=O)O)C(=O)C3 [Compound 10, 2,2′-((4bR,8aS,9R)-11-(cyclopropylmethyl)-8a-hydroxy-3-methoxy-6-oxo-6,7,8,8a,9,10-hexahydro-5H-9,4b-(epiminoethano)phenanthrene-7,7-diyl)diacetic acid] | 14700 ± 1530 nM | 16 ± 2.65% |  |  | > 20000 nM
4 | O=C(O)CC1(CC(=O)O)C[C@@]2(O)[C@H]3Cc4ccc(O)cc4[C@@]2(CCN3CC2CC2)CC1=O [Compound 12, 2,2′-((4bR,8aS,9R)-11-(cyclopropylmethyl)-3,8a-dihydroxy-6-oxo-6,7,8,8a,9,10-hexahydro-5H-9,4b-(epiminoethano)phenanthrene-7,7-diyl)diacetic acid] | > 200000 nM |  |  |  | 3410 ± 538 nM
5 | COc1ccc2c(c1)[C@]13CCN(CC4CC4)[C@H](C2)[C@]1(O)C[C@H](CC(=O)N[C@@H](C)C(=O)O)C(=O)C3 [Compound 13, (S)-2-(2-((4bR,7R,8aS,9R)-11-(cyclopropylmethyl)-8a-hydroxy-3-methoxy-6-oxo-6,7,8,8a,9,10-hexahydro-5H-9,4b-(epiminoethano)phenanthren-7-yl)acetamido)propanoic acid] | 4600 ± 471 nM | 66 ± 2.65% |  |  | > 20000 nM
6 | C[C@H](NC(=O)C[C@H]1C[C@@]2(O)[C@H]3Cc4ccc(O)cc4[C@@]2(CCN3CC2CC2)CC1=O)C(=O)O [Compound 15, (S)-2-(2-((4bR,7R,8aS,9R)-11-(cyclopropylmethyl)-3,8a-dihydroxy-6-oxo-6,7,8,8a,9,10-hexahydro-5H-9,4b-(epiminoethano)phenanthren-7-yl)acetamido)propanoic acid] | 43.8 ± 14.7 nM | 36.2 ± 3.75% | 221 ± 59.4 nM | 36 ± 2% | 191 ± 45.8 nM
7 | COc1ccc2c(c1)[C@]13CCN(CC4CC4)[C@H](C2)[C@]1(O)C[C@H](CC(=O)N1CCC[C@H]1C(=O)O)C(=O)C3 [Compound 16, (S)-1-(2-((4bR,7R,8aS,9R)-11-(cyclopropylmethyl)-8a-hydroxy-3-methoxy-6-oxo-6,7,8,8a,9,10-hexahydro-5H-9,4b-(epiminoethano)phenanthren-7-yl)acetyl)pyrrolidine-2-carboxylic acid] | 6770 ± 1370 nM | 28.7 ± 1.86% |  |  | > 20000 nM
8 | O=C1C[C@]23CCN(CC4CC4)[C@H](Cc4ccc(O)cc42)[C@]3(O)C[C@@H]1CC(=O)N1CCC[C@H]1C(=O)O [Compound 17, (S)-1-(2-((4bR,7R,8aS,9R)-11-(cyclopropylmethyl)-3,8a-dihydroxy-6-oxo-6,7,8,8a,9,10-hexahydro-5H-9,4b-(epiminoethano)phenanthren-7-yl)acetyl)pyrrolidine-2-carboxylic acid] | > 200000 nM | 0% | > 200000 nM |  | 128 ± 18.1 nM
9 | COc1ccc2c(c1)[C@]13CCN(CC4CC4)[C@H](C2)[C@]1(O)C[C@H](CC(=O)N[C@@H](CC(C)C)C(=O)O)C(=O)C3 [Compound 18, (S)-2-(2-((4bR,7R,8aS,9R)-11-(cyclopropylmethyl)-8a-hydroxy-3-methoxy-6-oxo-6,7,8,8a,9,10-hexahydro-5H-9,4b-(epiminoethano)phenanthren-7-yl)acetamido)-4-methylpentanoic acid] | 2750 ± 221 nM | 50 ± 1.53% |  |  | 15900 nM
10 | CC(C)C[C@H](NC(=O)C[C@H]1C[C@@]2(O)[C@H]3Cc4ccc(O)cc4[C@@]2(CCN3CC2CC2)CC1=O)C(=O)O [Compound 19, (S)-2-(2-((4bR,7R,8aS,9R)-11-(cyclopropylmethyl)-3,8a-dihydroxy-6-oxo-6,7,8,8a,9,10-hexahydro-5H-9,4b-(epiminoethano)phenanthren-7-yl)acetamido)-4-methylpentanoic acid] | 49.7 ± 7.48 nM | 37.5 ± 3.93% | 201 ± 25.9 nM | 41.3 ± 2.85% | 146 ± 29.7 nM
